Test results from patent publication US11325905B2, “Imidopiperidine compounds as inhibitors of human polynucleotide kinase phosphatase” (THE GOVERNORS OF THE UNIVERSITY OF ALBERTA, priority 2017, dated 2022).
pIC50, pKd: −log10 of the molar value. Values joined by “and” are separate entries in the source; they are usually repeats but may differ in a detail not shown here. Equal values may be shown once. Read-outs that look alike come from different tables or passages of the source. One block for each compound: values may come before it.

Columns and labels:
PNKP [1] = biological target: T1, PNKP (Homo sapiens (Human), UniProt Q96T60); experiment: Binding affinity (Kd) by steady-state fluorescence spectroscopy, protein tryptophan fluorescence quenching
Procedure: (§1) We chose to first rate and compare the analogues using a single-point measurement at 20 μM concentration. […] Only the top-rated analogues were further evaluated with an IC50 and a dissociation constant (Kd) determination.
Freschauf, G. K., Mani, R. S., Mereniuk, T. R., Fanta, M., Virgen, C. A., Dianov, G. L., Grassot, J. M., Hall, D. G., and Weinfeld, M. Mechanism of action of an imido-piperidine inhibitor of human polynucleotide kinase/phosphatase.

[2] = tested on: human A549 lung carcinoma cells; settings: non-toxic doses; cited from earlier work
[3] = concentrations of 5-10 μM; cited from earlier work
myeloid leukemia cells = settings: cited from earlier work
[4] = tested on: cells in which PNKP expression was down-regulated by shRNA; settings: cited from earlier work
[5] = tested on: limited panel of phosphatase enzymes; settings: cited from earlier work
[6] = tested on: radioresistant prostate cancer cells; settings: cited from earlier work
murine PNKP = murine PNKP (Mus musculus (Mouse), UniProt Q9JLV6); settings: compared with human PNKP; cited from earlier work
Sequence of murine PNKP (Q9JLV6 whole entry): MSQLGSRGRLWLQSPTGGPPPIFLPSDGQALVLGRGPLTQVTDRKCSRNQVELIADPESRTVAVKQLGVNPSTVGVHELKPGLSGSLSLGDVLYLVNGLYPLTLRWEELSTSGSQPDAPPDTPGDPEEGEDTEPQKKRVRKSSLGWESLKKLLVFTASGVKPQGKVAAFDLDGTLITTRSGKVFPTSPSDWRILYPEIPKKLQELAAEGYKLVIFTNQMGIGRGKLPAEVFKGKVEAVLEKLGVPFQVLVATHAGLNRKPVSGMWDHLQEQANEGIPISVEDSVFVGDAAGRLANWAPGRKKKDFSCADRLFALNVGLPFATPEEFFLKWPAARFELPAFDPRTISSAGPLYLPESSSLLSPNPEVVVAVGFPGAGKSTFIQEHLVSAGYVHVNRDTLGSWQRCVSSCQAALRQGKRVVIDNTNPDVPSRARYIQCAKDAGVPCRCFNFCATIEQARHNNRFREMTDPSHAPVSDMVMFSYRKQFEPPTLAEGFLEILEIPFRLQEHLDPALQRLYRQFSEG

[7] = tested on: MDA-MB-231 breast cancer cells; settings: non-toxic doses; cited from earlier work
PNKP [8] = biological target: T1, PNKP; experiment: Universal molecular beacon (U-MB) fluorescence assay of PNKP phosphatase activity, IC50; format: biochemical
Procedure: as §1

PNKP [9] = biological target: T1, PNKP; settings: intrinsic (tryptophan) fluorescence quenching titration, earlier publication; read-out: dissociation constant (Kd); cited from earlier work
HCT116 cells [10] = experiment: MTS cell proliferation assay; format: cell-based, human; settings: for usable concentration in clonogenic survival assays (not affecting cell growth): 72 h MTS
Procedure: Free inhibitor was dissolved in DMSO in a way to keep the final concentration of DMSO<1%. After 72 h, 11 μL of the pre-mixed optimized dye solution (tetrazolium dye) was added to each well and cells were incubated for 4 more hours at 37° C. The absorbance recorded at 490 nm on a FLUOstar Optima® plate reader (BMG Labtech Inc., Durham, N.C.) was used as a representation of the relative number of metabolically active cells in the culture.

HCT116 cells [11] = experiment: Clonogenic survival assay, radio/chemosensitization; format: cell-based, human
Procedure: (§2) Cells, seeded in 60-mm dishes 24 hours in advance, were treated with PNKP inhibitors for 9-14 consecutive days at nontoxic concentrations. […] Colonies consisting of 50 cells or more were counted using an automated colony counter (Oxford Optronix, Abingdon, UK).

HCT116 PTEN−/− cells = experiment: Clonogenic survival assay, synthetic lethality; format: cell-based, human
Procedure: (§3) Cells, seeded in 60-mm dishes 24 hours in advance, were treated with PNKP inhibitors for 9-14 consecutive days at nontoxic concentrations. Colonies were then stained with a crystal violet (Sigma, Oakville, ON, CA) stain containing 25% methanol for 30 min, after which the plates were washed in warm water and left to dry overnight. Colonies consisting of 50 cells or more were counted using an automated colony counter (Oxford Optronix, Abingdon, UK).
(§4) To investigate whether the new encapsulated PNKP 3′-phosphatase inhibitors could induce a synthetic lethal response in PTEN-deficient cells, we performed clonogenic survival assays with both HCT116 PTEN+/+ and HCT116 PTEN−/− cells. […] However, the disruption of PNKP (chemically by inhibitors) or PTEN (genetically) individually was not lethal. These findings confirm our previous observation that a synthetic lethal relationship exists between PTEN and PNKP.

Solubility = format: physicochemical
HCT116 PTEN+/+ cells = experiment: Clonogenic survival assay, PTEN wild-type control cells; format: cell-based; settings: encapsulated, 9-14 days
Procedure: as §3, §4

[12] = tested on: HCT116 wild type (wt) and PTEN knockout colorectal cells xenograft tumours; experiment: Subcutaneous xenograft tumour response; format: in vivo; settings: NIHIII mice, intravenous, three times 2 days apart, free or encapsulated
Procedure: In FIG. 32, we have injected 500,000 HCT116 colorectal cancer cells subcutaneously in the right flank of NIHIII mice. […] Tumour volume was then calculated from the measurement of tumour dimensions and used to plot change in tumour volume over time.

[13] = In vitro release of PNKP inhibitors by dialysis method; format: physicochemical
Procedure: The in vitro release of encapsulated PNKP inhibitors was studied using a dialysis method. Each dialysis bag (Spectrapor dialysis tubing, MWCO 3.5 kDa, Spectrum Laboratories, Rancho Dominguez, Calif.), containing 2 mL of the micellar formulation or free drug dissolved in acetone, was placed into 300 mL of distilled water maintained at 37° C. in a shaking water bath (65 rpm, Julabo SW 22 shaking water bath, Seelbach, Germany). At selected time intervals, aliquots of 200 μL from the inside of the dialysis bag were collected. The amount of PNKP inhibitor was analyzed using a Varian Prostar 210 HPLC system. Reversed phase chromatography was carried out with a Microsorb-MV 5 μm C18-100 Å column (4.6 mm×250 mm) with 20 μL of sample injected and eluted under isocratic conditions with a solution of 0.1% trifluroacetic acid/acetonitrile (1:1 v/v) at a flow rate of 1.0 mL/min at room temperature.

[14] = tested on: HCT116 PNKP-knock out cells; experiment: Clonogenic survival assay, radio/chemosensitization in PNKP knock-out cells; format: cell-based, human; settings: free or encapsulated
Procedure: as §2

EGFR = EGFR (Homo sapiens (Human), UniProt P00533); settings: read-out: dissociation constant; cited from earlier work

pKd (PNKP [1]): 6.43
pIC50 (PNKP [8]): 4.85
Compound: CCCCCCCCCC[C@@H](O)[C@H]1C=CC2C(=O)N(c3ccccc3)C(=O)[C@H]2N1Nc1ccc([N+](=O)[O-])cc1 (stereo in doubt) [Compound A12B4C3, 2-(1-hydroxyundecyl)-1-(4-nitrophenylamino)-6-phenyl-6,7a-dihydro-1H-pyrrolo[3,4-b]pyridine-5,7(2H, 4aH)-dione]
sensitization to γ-radiation and camptothecin [2]: able to sensitize
cytotoxicity [3]: low cytotoxicity
sensitization to Auger electron-emitting radioimmunoconjugate (myeloid leukemia cells): sensitizes
sensitization of PNKP-down-regulated cells [4]: failed to sensitize
specificity [5]: specificity for PNKP
sensitization to irradiation by carbon ions [6]: sensitizes
inhibition of murine PNKP (murine PNKP): only slightly reduced efficacy
sensitization to γ-radiation and camptothecin [7]: able to sensitize
pKd (PNKP [9]): 6.47

Compound: CCCCCCCCCC[C@@H](O)[C@@H]1C=CC2C(=O)N(c3ccc(N4CCNCC4)cc3)C(=O)[C@H]2N1Nc1ccc([N+](=O)[O-])cc1 (some centres unmarked) [Compound A12B4C50]
usable concentration in clonogenic survival assays (not affecting cell growth) (HCT116 cells [10]): ≤ 5 µM
concentrations at which cell growth was affected (HCT116 cells [10]; free and encapsulated, 72 h): > 5 µM
level at which encapsulated inhibitor sensitized HCT116 cells to radiation and irinotecan (HCT116 cells [11]): 4 µM
level at which encapsulated inhibitor induced synthetic lethality (HCT116 PTEN−/− cells): 4 µM
water solubility (Solubility): low water solubility
toxicity to HCT116 PTEN+/+ cells (HCT116 PTEN+/+ cells): showed toxicity

solubility compared with A12B4C3 (Solubility): more soluble
Compound: O=C1C2C=C[C@H]([C@H](O)c3ccc(Br)cc3)N(Nc3ccc([N+](=O)[O-])cc3)[C@@H]2C(=O)N1c1ccccc1 (some centres unmarked) [Compound A44B4C3]

solubility compared with A12B4C3 (Solubility): more soluble
Compound: COc1ccccc1[C@@H](O)[C@H]1C=CC2C(=O)N(c3ccccc3)C(=O)[C@H]2N1Nc1ccc([N+](=O)[O-])cc1 (some centres unmarked) [Compound A83B4C3]

Compound: COc1ccccc1C(O)C1C=CC2C(=O)N(Cc3cccc4ccccc34)C(=O)C2N1Nc1ccc([N+](=O)[O-])cc1 (centres unmarked) [Compound A83B4C63, 2-[hydroxy(2-methoxyphenyl)methyl]-6-(naphthalen-1-ylmethyl)-1-[(4-nitrophenyl)amino]2H,4aH,7aH-pyrrolo[3,4-b]pyridine-5,7-dione]
usable concentration in clonogenic survival assays (not affecting cell growth) (HCT116 cells [10]): < 20 µM
tumour volume response, PTEN positive versus PTEN negative tumour model [12]: not as effective in the PTEN positive tumour model as it is in the PTEN negative tumour model
level at which encapsulated inhibitor sensitized HCT116 cells to radiation and irinotecan (HCT116 cells [11]): 6 µM
synthetic lethality in HCT116 PTEN−/− cells (HCT116 PTEN−/− cells; 9-14 days treatment): more specifically toxic to PTEN-deficient cells than A12B4C50
level at which encapsulated inhibitor induced synthetic lethality (HCT116 PTEN−/− cells): 4 µM
drug released from the dialysis bag ([13]; free drug, within 6 h, 37° C.): 59.4%
drug released ([13]; from PEO-b-PBCL micelles, within 6 h, 37° C.): 30.6%
drug release ([13]; from PEO-b-PCL formulations, within 24 h): 84.2%
drug released ([13]; from PEO-b-PCL micelles, within 6 h, 37° C.): 66.5%
cumulative release ([13]; from respective optimum micelles (PEO-b-PCCL for A12B4C50, PEO-b-PBCL for A83B4C63), within 24 h): 48% and 48.2%
water solubility (Solubility): low water solubility
sensitization of HCT116 PNKP-knock out cells to radiation or irinotecan [14]: failed to further sensitize

Compound: YHWYGYTPQNVI [GE11]
pKd (EGFR): ~7.66
